The results in this text go back to patent EP3448864B1, “SILSE[…] TRANSPORT COMPOUNDS” (Technische Universität Darmstadt, priority 2016, dated 2017).

What all share (type): cell-based
Assay [1] deals with HeLa-Zellen. The assay is described as follows: Cell proliferation test (MTT) after short incubation. The following applies: free drug in PBS pH 5,5, different concentrations, 1, 2 and 3 h incubation, 1x10^4 HeLa cells, MTT after 18 h. An excerpt: Um die Toxizität von Doxorubicin auf HeLa-Zellen zu untersuchen, wurde ein Inkubationszeitabhängiger Test mit dem freien Wirkstoff durchgeführt. Dafür wurde Doxorubicin in PBS bei pH 5,5 gelöst und bei unterschiedlichen Konzentrationen für 1 Stunde, 2 Stunden und 3 Stunden mit 1x10^4 HeLa-Zellen inkubiert. Nach dem Inkubieren wurden die Zellen mit DMEM gewaschen und nach 18 Stunden ein Zellproliferationstest (MTT) durchgeführt.
Danach wurde die oben gezeigte erfindungsgemäße Verbindung mit Doxorubicin als Cargo-Molekülstruktur getestet. Die Verbindung wurde - genau wie die Kontrollen (freies Doxorubicin, unbehandelte Zellen) -je dreifach bei gleicher Konzentration für eine Stunde inkubiert. Um die Disulfidbrücke zu schützen wurden die Zellen mit hoch-glucosehaltigem DMEM ohne Methionin, Cysteine und Glutamine gewaschen. Nach der Inkubation wurden die Zellen mit DMEM gewaschen und nach 18 Stunden wurde ein MTT-Assay durchgeführt. […] Die Ergebnisse sind in FIG.6 zusammen gefasst.

For assay [2], the system named is HeLa-Zellen. As to the kind of experiment: Flow cytometry quantification of cellular uptake. The following applies: for Aufnahme in Zellen: summary statement in the description, citing FIG.1A/1B, 2, 3, 4. An excerpt: Um die Aufnahme der Verbindungen in eukaryotische Zellen zu quantifizieren, wurden umfangreiche Durchflusszytometrieuntersuchungen mit den Verbindungen 2 bis 7 (Verbindungen 2 und 5 sind Vergleichsbeispiele) durchgeführt. Ferner wurden auch die aus dem Stand der Technik bekannten zellpenetrierenden Peptide Tat 10, Penetratin 11, Heptaarginin 12 und Decaarginin 13 untersucht. Zu diesem Zweck wurden auch die Peptide mit TAMRA markiert.
Zunächst wurden HeLa-Zellen mit den zu untersuchenden Substanzen bei einer Konzentration von 20 µM in serumfreiem DMEM bei 37°C für 10 Minuten inkubiert. Danach wurden die Zellen dreimal mit PBS gewaschen und nach einem Trypsinverdau nochmals mit PBS gewaschen. Danach wurden die Untersuchungen durchgeführt. […] Die Ergebnisse sind in FIG.2 zusammen gefasst.

Assay [3] concerns HeLa-Zellen. As to the kind of experiment: Study of the uptake mechanism (temperature, concentration, serum) by fluorescence. The method, then: Es wurden weitere Fluoreszenzuntersuchungen an Verbindung 4 durchgeführt. […] Daraus kann angenommen werden, dass der Mechanismus energieunabhängig verläuft.
Ferner wurden HeLa-Zellen mit der Verbindung 4 bei unterschiedlichen Konzentrationen inkubiert. Schon bei 80 nM wurde eine Aufnahme in die Zellen beobachtet. Bei 1 µM wurde der größte Effekt beobachtet.
Darüber hinaus wurde untersucht, ob Serum die Aufnahme in die Zellen behindern kann. Dafür wurde die Inkubationslösung mit 2% fetalem Kälberserum versetzt.

Where [4] appears, read: HeLa cells incubated at different concentrations.

In the case of `COc1cccc2c1C(=O)c1c(O)c3c(c(O)c1C2=O)C[C@@](O)(C(=O)CO)C[C@@H]3O[C@H]1C[C@H](N)[C@H](O)[C@H](C)O1` [Doxorubicin, reference compound], in the assay on HeLa-Zellen [1], the “Toxizität auf HeLa-Zellen” value is reported as “mit längerer Inkubation nahm die Toxizität zu”.

“TAMRA-hepta-4-guanidinobuttersäure-COSS-amid [Verbindung 7]”: the “Aufnahme in Zellen” value in the assay with HeLa-Zellen [2] was “besonders ausgeprägte Aufnahme in Zellen”.

Regarding “TAMRA-hepta-4-trimethylammoniumbuttersäure-COSS-amid [Verbindung 6]”, the “Aufnahme in Zellen” value in the assay on HeLa-Zellen [2] is “besonders ausgeprägte Aufnahme in Zellen”.

Take TAMRA-heptaguanidin-COSS [Verbindung 4]: in the assay with HeLa-Zellen [2] (20 µM, serum-free DMEM, 37°C, 10 min, fold versus TAMRA-labelled Tat peptide), the “Aufnahme stärker ausgeprägt als die des Tat-Peptids” value came out at 155 mal. Further, the Aufnahme entry in the assay with HeLa-Zellen [2] (20 µM, serum-free DMEM, 37°C, 10 min, ranking among compounds 2 to 7 and TAMRA-labelled peptides 10 to 13, FIG.2) was “beste Aufnahme”. The “Aufnahme in Zellen” value in the assay with HeLa-Zellen [2] is recorded as “besonders ausgeprägte Aufnahme in Zellen”. Besides, in the assay on HeLa-Zellen [3] (setting [4]), the “Konzentration, bei der der größte Effekt beobachtet wurde” value was 1 µM and the “Konzentration, bei der schon eine Aufnahme in die Zellen beobachtet wurde” value was determined as 80 nM. Further, the “Aufnahme bei den unterschiedlichen Temperaturen” value in the assay with HeLa-Zellen [3] (incubation at 37°C versus 4°C) is reported as “kaum unterschiedlich”. Moreover, the “Einfluss von Serum auf die Aufnahme in die Zellen” value in the assay on HeLa-Zellen [3] (incubation solution with 2% fetal calf serum versus serum-free tests) is listed as “kein Unterschied”.

For the molecule “TAMRA-heptatrimethylammonium-COSS [Verbindung 3]”, the “Aufnahme in Zellen” value in the assay with HeLa-Zellen [2] is “besonders ausgeprägte Aufnahme in Zellen”.
